In article PMC11324666, “Two novel in vitro assays to screen chemicals for their capacity to inhibit thyroid hormone transmembrane transporter proteins OATP1C1 and OAT4” (Archives of Toxicology, 2024):
Like-named read-outs stand apart in the source and are kept apart here.

Key:
[1] = molecular target: T1, OATP1C1 (Homo sapiens, UniProt Q9NYB5); experiment: CHO-K1 OATP1C1 TH uptake assay with 125I-T4 tracer; assay type: cell-based; settings: for 125I-T4 uptake compared to the vehicle control (range finding): single concentration 10 or 100 µM, below 80% = positive hit
T1 construct: host or cells: CHO-K1
T1 sequence (Q9NYB5 1-712): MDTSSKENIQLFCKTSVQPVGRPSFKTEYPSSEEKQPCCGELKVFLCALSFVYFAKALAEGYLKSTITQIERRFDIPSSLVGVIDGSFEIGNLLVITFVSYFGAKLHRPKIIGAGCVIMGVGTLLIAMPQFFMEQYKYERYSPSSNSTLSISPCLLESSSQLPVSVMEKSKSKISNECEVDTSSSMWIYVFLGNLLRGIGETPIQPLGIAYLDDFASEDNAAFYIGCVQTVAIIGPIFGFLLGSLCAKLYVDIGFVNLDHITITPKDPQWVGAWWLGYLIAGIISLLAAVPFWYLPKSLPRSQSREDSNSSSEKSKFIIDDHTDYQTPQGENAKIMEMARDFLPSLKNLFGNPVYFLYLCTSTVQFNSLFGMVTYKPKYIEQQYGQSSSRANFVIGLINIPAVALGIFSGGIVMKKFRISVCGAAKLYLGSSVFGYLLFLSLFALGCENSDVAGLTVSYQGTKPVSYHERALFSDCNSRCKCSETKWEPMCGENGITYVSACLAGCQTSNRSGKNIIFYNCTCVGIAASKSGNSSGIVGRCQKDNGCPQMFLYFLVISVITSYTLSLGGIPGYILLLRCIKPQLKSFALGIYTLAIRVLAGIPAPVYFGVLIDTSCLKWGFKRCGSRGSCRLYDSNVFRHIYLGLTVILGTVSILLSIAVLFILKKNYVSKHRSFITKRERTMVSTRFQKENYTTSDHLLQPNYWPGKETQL
Procedure: MDCK-OAT4 and MDCK-DEST cells were cultured in DMEM:F12 (L-glutamine, 15 mM HEPES) (Gibco) supplemented with (100 µg/mL penicillin + 100 µg/mL streptomycin), 10% fetal calf serum (Gibco) and 2 µg/mL blasticidin (Sigma). CHO-K1 OATP1C1 or WT cells were cultured in F12 nutrient mix (Gibco) supplemented with (100 µg/mL penicillin + 100 µg/mL streptomycin), 10% fetal calf serum (Gibco) and […] G418 (Sigma). All cell cultures were incubated at 37 °C with 5% CO2 saturation until 80% confluency. MDCK-OAT4 and MDCK-DEST cells were seeded in 96 wells plate at a density of 4 × 10^5 cells in 100 µL medium per well and incubated for 24 h before the start of the MDCK-OAT4 TH uptake assay. CHO-K1 OATP1C1 and WT cells were seeded in 96 wells plate at a density of 3 × 10^5 cells in 100 µL medium per well 72 h before the CHO-K1 OATP1C1 TH uptake assay. Medium from CHO-K1 OATP1C1 or WT assay plates was changed to serum-free F12 medium containing 5 mM sodium-butyrate 24 h before start of the CHO-K1 OATP1C1 TH uptake assay to increase transfected expression of SV-40 promotor plasmids.
Subsequently 10 µL of a tenfold stock of test compound in uptake buffer (solvent concentration 1% v/v) was added to each well. […] Cells were exposed at 37 °C for 20 min (MDCK-OAT4) or 30 min (CHO-K1 OATP1C1), unless stated differently. After exposure, cells were immediately washed with ice-cold PBS supplemented with 0.1% bovine serum albumin (BSA). Subsequently, cells were lysed in 50 µL of 0.1 M NaOH under continuous shaking at room temperature. After 20 min, cell lysates were manually transferred into separate 5 mL polypropylene tubes. One tube was also prepared with 10 µL of the T4 tracer solution. Radioactivity was measured in a Wizard^2 gamma counter (Perkin Elmer).
For the CHO-K1 OATP1C1 TH uptake assay total of 29 chemicals (Table 1) were selected for the EDC screening based on available literature data. […] The same chemicals were selected for the MDCK-OAT4 TH uptake assay, with the exception of BPF, VRP and TCS. […] The THTMT TH uptake assay was then performed as described earlier. […] A concentration of 100 µM ICG was used as a reference chemical for OATP1C1 and 100 µM LESI for OAT4. At least three independent experiments were performed for each chemical.
Raw values were normalized to the total amount of radioactivity in the T4 tracer solution. These values were expressed as a percentage of total radioactivity added (or uptake percentage) and used for all further data analysis. Statistically significant differences between the T4 uptake of transfected and wild type cells, in the presence or absence of inhibitor, were determined by two-way ANOVA (α = 5%, two-sided). […] In brief, uptake values were normalized to the median response of the vehicle and positive controls for each plate. […] Statistical analysis were performed using GraphPad Prism version 8 for Windows (GraphPad Software, San Diego, California USA) and SAS 9.3 (SAS Institute, Cary NC).

[2] = system: MDCK-OAT4 cells; experiment: CellTiter-Glo luminescent cell viability assay in MDCK-OAT4 cells; settings: for Cytotoxicity IC10: concentration that inhibits cell viability by 10%, MDCK-OAT4 cells, 20 min exposure
Procedure: Cell viability was assessed through the quantitation of ATP present in cells using the commercially available CellTiter-Glo® luminescent cell viability assay and performed according to the manufacturer’s instruction (Promega, Leiden, the Netherlands). Briefly, cells were seeded as described earlier in opaque-walled clear-bottom 96 well plates. On the day of the experiment, each well was washed with 200 µL phosphate buffered saline (PBS) and exposed to 80 µL of uptake buffer, 10 µL of a tenfold stock of test compound solved in uptake buffer or control and 10 µL of T4 (final concentration 10 nM). 0.1% DMSO was used as a solvent control, while 10% DMSO was used as a positive control. After exposure for the indicated times similar to THTMT TH uptake assay, cells were immediately washed with ice-cold PBS + 0.1%BSA and exposed to 100 µL of the CellTiter-Glo® Reagent. Plates were then shaken on an orbital shaker for 2 min and left to incubate at room temperature for 10 min. Luminescence was measured on a BioTek Cytation 5 microplate reader. […] Each individual experiment was repeated at least twice and contained three technical replicates of each control and concentration tested.
Figure S2. […] Blue dots indicate the plate medians from three or four independent experiments, all control and chemical concentrations were tested in triplicates per plate. The black line indicates the best-fit concentrations response curve, the dotted line the corresponding 95% confidence interval.

[3] = system: oatp1c1; parameters: method as in Westholm et al. (2009); settings: T4 1 nM; ref Westholm et al. (2009); read-out: IC50 of T4 transmembrane transport inhibition; cited from earlier work
[4] = system: oatp1c1; parameters: method as in Tohyama et al. (2004); settings: ref Tohyama et al. (2004); cited from earlier work
[5] = concentration that inhibits 125I-T4 uptake by 20%, 10 nM T4, 30 min, brackets = 95% CI

Compound | T4 uptake inhibition BMC20 (M), [CI] [1, 5] | Cytotoxicity IC10 [2] [µM] | 125I-T4 uptake compared to the vehicle control (range finding) ([1]; 10 nM T4, 30 min) | other results
O=C(O)C(F)(F)C(F)(F)C(F)(F)C(F)(F)C(F)(F)C(F)(F)C(F)(F)F [Perfluorooctanoic acid] | 2.94E−06 [1.04E−06; 8.36E−06] M | > 100 |  | 
O=C1OC(c2ccc(O)c(S(=O)(=O)O)c2)(c2ccc(O)c(S(=O)(=O)O)c2)c2c(Br)c(Br)c(Br)c(Br)c21 [Bromosulfophthalein, reference compound] | 8.72E−07 [5.70E−07; 1.33E−06] M | > 100 | below 80% | 
CC(C)(c1cc(Br)c(O)c(Br)c1)c1cc(Br)c(O)c(Br)c1 [Tetrabromobisphenol A, Tetrabromobisphenol-A] | 2.03E−09 [1.28E−09; 3.22E−09] M | > 10 | below 80% | BMC20 (20% reduction in T4 uptake) [1]: 0.0020 µM
Oc1c(Cl)c(Cl)c(Cl)c(Cl)c1Cl [Pentachlorophenol] |  | 1.14 |  | T4 uptake inhibition BMC20 (M), [CI] [1]: 8.81E−08 [5.80E−08; 1.34E−07] M; cytotoxic effects ([2]; at concentrations of the uptake assay, Figure S2): cytotoxic
CC1(C)C(/C=C/C=C/C=C/C=C2\N(CCCCS(=O)(=O)O)c3ccc4ccccc4c3C2(C)C)=[N+](CCCCS(=O)(=O)[O-])c2ccc3ccccc3c21 [Indocyanine green, reference compound] | 3.60E−07 [2.17E−07; 5.97E−07] M | > 10 |  | T4 uptake on co-exposure to known inhibitor ([1]; 100 µM, t = 40 min, versus CHO-K1 wildtype cells): decreased back to control; IC50 [3]: 0.1 µM
CO[C@H]1/C=C/O[C@@]2(C)Oc3c(C)c(O)c4c(O)c(c(/C=N/N5CCN(C)CC5)c(O)c4c3C2=O)NC(=O)/C(C)=C\C=C\[C@H](C)[C@H](O)[C@@H](C)[C@@H](O)[C@@H](C)[C@H](OC(C)=O)[C@@H]1C [Rifampicin, reference compound] | 4.06E−05 [2.58E−05; 6.38E−05] M | > 100 |  | 
O=S(=O)([O-])c1cc(S(=O)(=O)O)ccc1C1=c2cc3c4c(c2Oc2c1cc1c5c2CCCN5CCC1)CCC[N+]=4CCC3 [Sulforhodamine 101, reference compound] | 2.86E−06 [1.29E−06; 6.34E−06] M |  | below 80% | 
CCCN(CCC)S(=O)(=O)c1ccc(C(=O)O)cc1 [Probenecid, reference compound] | 6.66E−07 [1.24E−07; 3.57E−06] M |  |  | Ki [4]: 293 µM
Oc1ccc(Cc2ccc(O)cc2)cc1 [Bisphenol F, Bisphenol-F] | 4.49E−05 [2.80E−05; 7.20E−05] M |  | below 80% | 
O=c1c(O)c(-c2ccc(O)c(O)c2)oc2cc(O)cc(O)c12 [Quercetin] | 3.94E−08 [4.41E−09; 3.51E−07] M | > 100 |  | 
Oc1ccc(C(c2ccc(O)cc2)(C(F)(F)F)C(F)(F)F)cc1 [Bisphenol AF, Bisphenol-AF] | 3.52E−06 [2.03E−06; 6.11E−06] M |  |  | cytotoxic effects [2]: cytotoxic
COc1cc([C@@H]2Oc3c(O)cc([C@H]4Oc5cc(O)cc(O)c5C(=O)[C@@H]4O)cc3[C@H]2CO)ccc1O [Silychristin, reference compound] | 3.78E−06 [1.54E−06; 9.27E−06] M |  | below 80% | 
O=S(=O)(O)C(F)(F)C(F)(F)C(F)(F)C(F)(F)C(F)(F)C(F)(F)C(F)(F)C(F)(F)F [Perfluorooctanesulfonic acid] | 4.03E−07 [2.32E−07; 7.00E−07] M | > 100 | below 80% | 
